Experiments:
Assay type in all cases: in vivo
[1] = system: Leptosphaeria nodorum; assay: Fungicidal activity: Wheat Glume Blotch (LEPTNO); conditions: 100 ppm, 1 DP (1 Day Protectant)
Description: Technical grades of materials were dissolved in acetone, which were then mixed with nine volumes of water containing 110 ppm Triton X-100. The fungicide solutions were applied onto wheat seedlings using an automated booth sprayer to run-off. All sprayed plants were allowed to air dry prior to further handling. All fungicides were evaluated using the aforementioned method for their activity vs. all target diseases, unless stated otherwise. Wheat leaf blotch and brown rust activity were also evaluated using track spray applications, in which case the fungicides were formulated as EC formulations, containing 0.1% Trycol 5941 in the spray solutions. Wheat plants (variety Yuma) were grown from seed in a greenhouse in 50% mineral soil/50% soil-less Metro mix until the first leaf was fully emerged, with 7-10 seedlings per pot. These plants were inoculated with an aqueous spore suspension of Septoria tritici either prior to or after fungicide treatments. After inoculation the plants were kept in 100% relative humidity (one day in a dark dew chamber followed by two to three days in a lighted dew chamber at 20° C.) to permit spores to germinate and infect the leaf. The plants were then transferred to a greenhouse set at 20° C. for disease to develop. When disease symptoms were fully expressed on the 1st leaves of untreated plants, infection levels were assessed on a scale of 0 to 100 percent disease severity. Percent disease control was calculated using the ratio of disease severity on treated plants relative to untreated plants. Evaluation of Fungicidal Activity: Wheat Glume Blotch (Leptosphaeria nodorum; Bayer Code […]) Wheat plants (variety Yuma) were grown from seed in a greenhouse in 50% mineral soil/50% soil-less Metro mix until the first leaf was fully emerged, with 7-10 seedlings per pot. These plants were inoculated with an aqueous spore suspension of Leptosphaeria nodorum 24 hr after fungicide treatments. After inoculation the plants were kept in 100% relative humidity (one day in a dark dew chamber followed by two days in a lighted dew chamber at 20° C.) to permit spores to germinate and infect the leaf. The plants were then transferred to a greenhouse set at 20° C. for disease to develop. Fungicide formulation, application and disease assessment followed the procedures as described in the Example A.

[2] = system: Venturia inaequalis; assay: Fungicidal activity: Apple Scab (VENTIN); conditions: 100 ppm, 1 DP (1 Day Protectant)
[3] = system: Uncinula necator; assay: Fungicidal activity: Grape Powdery Mildew (UNCINE); conditions: 100 ppm, 1 DP (1 Day Protectant)
Description: Technical grades of materials were dissolved in acetone, which were then mixed with nine volumes of water containing 110 ppm Triton X-100. The fungicide solutions were applied onto wheat seedlings using an automated booth sprayer to run-off. All sprayed plants were allowed to air dry prior to further handling. All fungicides were evaluated using the aforementioned method for their activity vs. all target diseases, unless stated otherwise. Wheat leaf blotch and brown rust activity were also evaluated using track spray applications, in which case the fungicides were formulated as EC formulations, containing 0.1% Trycol 5941 in the spray solutions. Wheat plants (variety Yuma) were grown from seed in a greenhouse in 50% mineral soil/50% soil-less Metro mix until the first leaf was fully emerged, with 7-10 seedlings per pot. These plants were inoculated with an aqueous spore suspension of Septoria tritici either prior to or after fungicide treatments. After inoculation the plants were kept in 100% relative humidity (one day in a dark dew chamber followed by two to three days in a lighted dew chamber at 20° C.) to permit spores to germinate and infect the leaf. The plants were then transferred to a greenhouse set at 20° C. for disease to develop. When disease symptoms were fully expressed on the 1st leaves of untreated plants, infection levels were assessed on a scale of 0 to 100 percent disease severity. Percent disease control was calculated using the ratio of disease severity on treated plants relative to untreated plants. Evaluation of Fungicidal Activity: Grape Powdery Mildew (Uncinula necator; Bayer code […]) Grape seedlings (variety Carignane) were grown in soil-less Metro mix, with one plant per pot, and used in the test when approximately one month old. Plants were inoculated 24 hr after fungicide treatment by shaking spores from infected leaves over test plants. Plants were maintained in a greenhouse set at 20° C. until disease was fully developed. […]

[4] = system: Rhyncosporium secalis; assay: Fungicidal activity: Barley Scald (RHYNSE); conditions: 100 ppm, 1 DP (1 Day Protectant)
Description: Technical grades of materials were dissolved in acetone, which were then mixed with nine volumes of water containing 110 ppm Triton X-100. The fungicide solutions were applied onto wheat seedlings using an automated booth sprayer to run-off. All sprayed plants were allowed to air dry prior to further handling. All fungicides were evaluated using the aforementioned method for their activity vs. all target diseases, unless stated otherwise. Wheat leaf blotch and brown rust activity were also evaluated using track spray applications, in which case the fungicides were formulated as EC formulations, containing 0.1% Trycol 5941 in the spray solutions. Wheat plants (variety Yuma) were grown from seed in a greenhouse in 50% mineral soil/50% soil-less Metro mix until the first leaf was fully emerged, with 7-10 seedlings per pot. These plants were inoculated with an aqueous spore suspension of Septoria tritici either prior to or after fungicide treatments. After inoculation the plants were kept in 100% relative humidity (one day in a dark dew chamber followed by two to three days in a lighted dew chamber at 20° C.) to permit spores to germinate and infect the leaf. The plants were then transferred to a greenhouse set at 20° C. for disease to develop. When disease symptoms were fully expressed on the 1st leaves of untreated plants, infection levels were assessed on a scale of 0 to 100 percent disease severity. Percent disease control was calculated using the ratio of disease severity on treated plants relative to untreated plants. Evaluation of Fungicidal Activity: Barley Scald (Rhyncosporium secalis; Bayer Code […]) Barley seedlings (variety Harrington) were propagated in soil-less Metro mix, with each pot having 8 to 12 plants, and used in the test when first leaf was fully emerged. Test plants were inoculated by an aqueous spore suspension of Rhyncosporium secalis 24 hr after fungicide treatments. After inoculation the plants were kept in a dew room at 20° C. with 100% relative humidity for 48 hr. The plants were then transferred to a greenhouse set at 20° C. for disease to develop. Fungicide formulation, application and disease assessment on the sprayed leaves followed the procedures as described in the Example A.

[5] = system: Blumeria graminis f. sp. tritici; assay: Fungicidal activity: Wheat Powdery Mildew (ERYSGT); conditions: 100 ppm, 1 DP (1 Day Protectant)
[6] = system: Phakopsora pachyrhizi; assay: Fungicidal activity: Asian Soybean Rust (PHAKPA); conditions: 25 ppm, 1DP (1 Day Protectant)
Description: Evaluation of Fungicidal Activity: Asian Soybean Rust (Phakopsora pachyrhizi; Bayer Code PHAKPA)
Technical grades of materials were dissolved in acetone, which were then mixed with nine volumes of water containing 0.011% Tween 20. The fungicide solutions were applied onto soybean seedlings using an automated booth sprayer to run-off. All sprayed plants were allowed to air dry prior to further handling.
Soybean plants (variety Williams 82) were grown in soil-less Metro mix, with one plant per pot. Two weeks old seedlings were used for testing. Plants were inoculated either 3 days prior to or 1 day after fungicide treatments. Plants were incubated for 24 h in a dark dew room at 22° C. and 100% relative humidity then transferred to a growth room at 23° C. for disease to develop. Disease severity was assessed on the sprayed leaves.

Row | SMILES | LEPTNO disease control rating [1] | VENTIN disease control rating [2] | UNCINE disease control rating [3] | RHYNSE disease control rating [4] | ERYSGT disease control rating [5] | PHAKPA disease control rating [6]
1 | CCCC[C@@H]1[C@@H](Cc2ccc(C(F)(F)F)cc2)COC[C@H](NC(=O)c2nccc(OC)c2OCOC(C)=O)C(=O)O[C@H]1C [compound 16] | A (>70) | A (>70) | A (>70) | A (>70) |  | 
2 | CCCC[C@@H]1[C@@H](Cc2ccccc2)COC[C@H](NC(=O)c2nccc(OC)c2OCOC(=O)C(C)C)C(=O)O[C@H]1C [compound 1] | A (>70) | B (≤70) | A (>70) | A (>70) |  | 
3 | COc1ccnc(C(=O)N[C@H]2COC[C@H](Cc3ccccc3)[C@@H](Cc3ccccc3)[C@H](C)OC2=O)c1OC(C)=O [compound 27] | A (>70) |  |  | A (>70) |  | 
4 | COc1ccnc(C(=O)N[C@H]2COC[C@H](c3ccccc3)[C@@H](c3ccccc3)[C@H](C)OC2=O)c1OCOC(C)=O [compound 7] |  |  | A (>70) |  | A (>70) | 
5 | COc1ccnc(C(=O)N[C@H]2COC[C@H](Cc3ccccc3)[C@@H](Cc3ccccc3)[C@H](C)OC2=O)c1OCOC(C)=O [Cmpd. 3, ((2-(((3S,7R,8R,9S)-7,8-dibenzyl-9-methyl-2-oxo-1,5-dioxonan-3-yl)carbamoyl)-4-methoxypyridin-3-yl)oxy)methyl acetate] | A (>70) |  |  |  |  | A (>70)
6 | COc1ccnc(C(=O)N[C@H]2COC[C@H](CC3CC3)[C@@H](c3ccccc3)[C@H](C)OC2=O)c1OC(C)=O [compound 100] | A (>70) |  |  | B (≤70) |  | 
